# In patent US8163740B2, “6-substituted benzoxazines” (Hoffmann-La Roche Inc., priority 2008, dated 2012):
# Legend:
# [1] = biological target: recombinant human 5-HT5A receptor (Homo sapiens, UniProt P47898); experiment: [3H]LSD radioligand binding assay; conditions: [3H]LSD (approximately 1 nM); membranes from HEK-EBNA cells transiently expressing 5-HT5A; Ki by Cheng-Prussoff equation; read-out: Ki
# Summary of the method: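 Membranes from HEK-EBNA cells transiently expressing the receptor, with ~1 nM [3H]LSD in 50 mM Tris, 1 mM EGTA, 10 mM MgCl2, 10 μM pargyline, pH 7.4, SPA bead format. Incubated 120 min RT; nonspecific binding defined with 2 μM methiothepin. 10 concentrations in duplicate; IC50 converted to Ki via Cheng-Prusoff.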
# Chain of recombinant human 5-HT5A receptor (P47898 whole entry): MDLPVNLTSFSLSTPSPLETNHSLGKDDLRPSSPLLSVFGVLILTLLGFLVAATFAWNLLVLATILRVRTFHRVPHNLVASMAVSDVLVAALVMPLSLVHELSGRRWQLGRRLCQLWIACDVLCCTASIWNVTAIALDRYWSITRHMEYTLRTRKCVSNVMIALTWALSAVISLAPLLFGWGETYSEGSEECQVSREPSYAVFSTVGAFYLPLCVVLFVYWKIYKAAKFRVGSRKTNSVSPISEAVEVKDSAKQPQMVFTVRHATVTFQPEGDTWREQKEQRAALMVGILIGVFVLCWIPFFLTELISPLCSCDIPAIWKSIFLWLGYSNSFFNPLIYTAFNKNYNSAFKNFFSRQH
SMILES,Ki [1],melting point
"COc1cccc2c1C(NC1=Nc3ccc(Br)cc3CO1)CO2 (racemic) [Example 54, rac-(6-Bromo-4H-benzo[d][1,3]oxazin-2-yl)-(4-methoxy-2,3-dihydro-benzofuran-3-yl)-amine]",125 nM,132.5 °C
"C(=C\c1ccc2c(c1)COC(N[C@@H]1CCc3ccccc31)=N2)/c1cccnc1 [Example 143, (R)-Indan-1-yl-[6-((E)-2-pyridin-3-yl-vinyl)-4H-benzo[d][1,3]oxazin-2-yl]-amine]",7.62 nM,132 °C
"COc1cccc2c1C(NC1=Nc3ccc(Br)cc3CO1)CC2 (racemic) [Example 74, rac-(6-Bromo-4H-benzo[d][1,3]oxazin-2-yl)-(7-methoxy-indan-1-yl)-amine]",13.8 nM,151 °C
"FC(F)(F)c1nnc(Nc2ccc3c(c2)COC(N[C@@H]2CCc4ccccc42)=N3)o1 [Example 138, N^2—(R)-Indan-1-yl-N^6-(5-trifluoromethyl-[1,3,4]oxadiazol-2-yl)-4H-benzo[d][1,3]oxazine-2,6-diamine]",8.76 nM,155 °C
"C(=C\c1ccc2c(c1)COC(N[C@@H]1CCc3ccccc31)=N2)/c1ccccc1 [Example 140, (R)-Indan-1-yl-[6-((E)-styryl)-4H-benzo[d][1,3]oxazin-2-yl]-amine]",17.6 nM,162 °C
"Brc1ccc2c(c1)COC(N[C@@H]1CCc3ccccc31)=N2 [Example 32, (6-Bromo-4H-benzo[d][1,3]oxazin-2-yl)-(R)-indan-1-yl-amine]",25.2 nM,123 °C
"COc1cccc2c1C(NC1=Nc3ccc(Nc4nnc(C)o4)cc3CO1)CC2 (centres unmarked) [Example 101, N^2-(7-Methoxy-indan-1-yl)-N^6-(5-methyl-[1,3,4]oxadiazol-2-yl)-4H-benzo[d][1,3]oxazine-2,6-diamine]",2.41 nM,162 °C
"O=C(NCc1ccc2c(c1)COC(N[C@@H]1CCc3ccccc31)=N2)c1ccc(F)cc1 [Example 132, 4-Fluoro-N-[2-((R)-indan-1-ylamino)-4H-benzo[d][1,3]oxazin-6-ylmethyl]-benzamide]",48 nM,
"COc1cccc2c1C(NC1=Nc3ccc(Nc4nnc(C)o4)cc3CO1)CO2 (racemic) [Example 107, rac-N^2-(4-Methoxy-2,3-dihydro-benzofuran-3-yl)-N^6-(5-methyl-[1,3,4]oxadiazol-2-yl)-4H-benzo[d][1,3]oxazine-2,6-diamine]",10.1 nM,191 °C
"CN(C)S(=O)(=O)Nc1ccc2c(c1)COC(Nc1cccc(C3CC3)c1)=N2 [Example 135, N′-{2-[(3-cyclopropylphenyl)amino]-4H-benzo[d][1,3]oxazin-6-yl}-N,N-dimethylsulfamide]",71.7 nM,
"FC(F)(F)c1ccnc(Nc2ccc3c(c2)COC(N[C@@H]2CCc4ccccc42)=N3)n1 [Example 46, N^2-(R)-Indan-1-yl-N^6-(4-trifluoromethyl-pyrimidin-2-yl)-4H-benzo[d][1,3]oxazine-2,6-diamine]",7.1 nM,
"CC(C)(O)CNCC(=O)Nc1ccc2c(c1)COC(N[C@@H]1CCCc3ccccc31)=N2 [Example 41, 2-(2-Hydroxy-2-methyl-propylamino)-N-{2-[(R)-(1,2,3,4-tetrahydro-naphthalen-1-yl)amino]-4H-benzo[d][1,3]oxazin-6-yl}-acetamide]",33 nM,
"COc1cccc2c1C(NC1=Nc3ccc(Nc4nnc(C(F)(F)F)o4)cc3CO1)CC2 (racemic) [Example 144, rac-N^2-(7-Methoxy-indan-1-yl)-N^6-(5-trifluoromethyl-[1,3,4]oxadiazol-2-yl)-4H-benzo[d][1,3]oxazine-2,6-diamine]",8.44 nM,173 °C
"CN(C)S(=O)(=O)Nc1ccc2c(c1)COC(NC1CCCCCC1)=N2 [Example 99, N,N-(Dimethyl)-N′-{2-cycloheptylamino-4H-benzo[d][1,3]oxazin-6-yl-}-sulfamide]",47.6 nM,
"COc1cccc2c1C(NC1=Nc3ccc(NC(C)=O)cc3CO1)CO2 (racemic) [Example 51, rac-N-[2-(4-Methoxy-2,3-dihydro-benzofuran-3-ylamino)-4H-benzo[d][1,3]oxazin-6-yl]-acetamide]",23.7 nM,
"COCC1CN(CC(=O)Nc2ccc3c(c2)COC(N[C@@H]2CCc4ccccc42)=N3)CCN1C (stereo partly drawn) [Example 147, N-[2-((R)-Indan-1-ylamino)-4H-benzo[d][1,3]oxazin-6-yl]-2-(3-methoxymethyl-4-methyl-piperazin-1-yl)-acetamide]",3.55 nM,
"COc1ccccc1CNC1=Nc2ccc(NC(=O)C3CC3)cc2CO1 [Example 7, Cyclopropanecarboxylic acid [2-(2-methoxy-benzylamino)-4H-benzo[d][1,3]oxazin-6-yl]-amide]",2.98 nM,
"Cc1cc(C)nc(Nc2ccc3c(c2)COC(N[C@@H]2CCc4ccccc42)=N3)n1 [Example 47, N^6-(4,6-Dimethyl-pyrimidin-2-yl)-N^2-(R)-indan-1-yl-4H-benzo[d][1,3]oxazine-2,6-diamine]",3.56 nM,
"Cc1nnc(Nc2ccc3c(c2)COC(NC2CCc4cc(F)ccc42)=N3)o1 (racemic) [Example 106, rac-N^2-(5-Fluoro-indan-1-yl)-N^6-(5-methyl-[1,3,4]oxadiazol-2-yl)-4H-benzo[d][1,3]oxazine-2,6-diamine]",2.94 nM,121 °C

# Next, values leading:
Ki [1],melting point,SMILES
1.65 nM,204 °C,"COc1cccc2c1C(NC1=Nc3ccc(Nc4nnc(C5CC5)o4)cc3CO1)CC2 (racemic) [Example 111, rac-N^6-(5-Cyclopropyl-[1,3,4]oxadiazol-2-yl)-N^2-(7-methoxy-indan-1-yl)-4H-benzo[d][1,3]oxazine-2,6-diamine]"
40.2 nM,212 °C,"COc1cccc2c1C(NC1=Nc3ccc(Nc4nnc(C(F)(F)F)o4)cc3CO1)CO2 (racemic) [Example 145, rac-N^2-(4-Methoxy-2,3-dihydro-benzofuran-3-yl)-N^6-(5-trifluoromethyl-[1,3,4]oxadiazol-2-yl)-4H-benzo[d][1,3]oxazine-2,6-diamine]"
14.1 nM,142 °C,"Fc1ccc2c(c1)CCC2NC1=Nc2ccc(Nc3nnc(C(F)(F)F)o3)cc2CO1 (racemic) [Example 148, rac-N^2-(5-Fluoro-indan-1-yl)-N^6-(5-trifluoromethyl-[1,3,4]oxadiazol-2-yl)-4H-benzo[d][1,3]oxazine-2,6-diamine]"
75.7 nM,138 °C,"Cc1nc(-c2ccc3c(c2)COC(N[C@@H]2CCc4ccccc42)=N3)no1 [Example 133, (R)-Indan-1-yl-[6-(5-methyl-[1,2,4]oxadiazol-3-yl)-4H-benzo[d][1,3]oxazin-2-yl]-amine]"
11.6 nM,206 °C,"N=C(NO)c1ccc2c(c1)COC(N[C@@H]1CCc3ccccc31)=N2 [Example 130, N-Hydroxy-2-((R)-indan-1-ylamino)-4H-benzo[d][1,3]oxazine-6-carboxamidine]"
1.4 nM,137 °C,"Cc1nnc(Nc2ccc3c(c2)COC(N[C@@H]2CCc4ccccc42)=N3)o1 [Example 118, N^2—(R)-Indan-1-yl-N^6-(5-methyl-[1,3,4]oxadiazol-2-yl)-4H-benzo[d][1,3]oxazine-2,6-diamine]"
8.68 nM,,"COc1cccc2c1C(NC1=Nc3ccc(NS(=O)(=O)c4ccccc4)cc3CO1)CC2 (racemic) [Example 104, rac-N-[2-(7-Methoxy-indan-1-ylamino)-4H-benzo[d][1,3]oxazin-6-yl]-benzenesulfonamide]"
4.98 nM,,"COc1cccc2c1C(NC1=Nc3ccc(NC(C)=O)cc3CO1)CC2 (racemic) [Example 52, rac-N-[2-(7-Methoxy-indan-1-ylamino)-4H-benzo[d][1,3]oxazin-6-yl]-acetamide]"
8.36 nM,,"COc1cccc2c1C(NC1=Nc3ccc(NS(C)(=O)=O)cc3CO1)CC2 (racemic) [Example 102, rac-N-[2-(7-Methoxy-indan-1-ylamino)-4H-benzo[d][1,3]oxazin-6-yl]-methanesulfonamide]"
6.16 nM,,"FC(F)(F)c1cccc(Nc2ccc3c(c2)COC(N[C@@H]2CCc4ccccc42)=N3)n1 [Example 35, N^2-(R)-Indan-1-yl-N^6-(6-trifluoromethyl-pyridin-2-yl)-4H-benzo[d][1,3]oxazine-2,6-diamine]"
2.6 nM,,"COc1cccc2c1C(NC1=Nc3ccc(NS(=O)(=O)N(C)C)cc3CO1)CC2 (racemic) [Example 61, rac-N,N-(Dimethyl)-N′-{2-(7-Methoxy-indan-1-ylamino)-4H-benzo[d][1,3]oxazin-6-yl}-sulfamide]"
26.8 nM,,"Cc1ccc(CNC2=Nc3ccc(NC(=O)CN4CCN(C)CC4)cc3CO2)o1 [Example 84, N-{2-[(5-Methyl-furan-2-ylmethyl)-amino]-4H-benzo[d][1,3]oxazin-6-yl}-2-(4-methyl-piperazin-1-yl)-acetamide]"
